Data reported in patent publication US9120812B2, “Pyrimidooxazocine derivatives as mTOR-inhibitors” (SANOFI, priority 2012, dated 2015).

Experiments:
[1] = target: mTOR (human recombinant aa mTOR 1360-2549) (Homo sapiens (Human), UniProt P42345); assay: mTOR enzymatic test by TR-FRET (phosphorylation of GFP-4EBP1); format: biochemical
Procedure, shortened: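 TR-FRET detection of GFP-4EBP1 phosphorylation by a terbium-labelled anti-phospho-Thr46 antibody. Kinase reaction ran 30 min at room temperature, was quenched with EDTA (10 mM final) plus Tb-antibody (2 nM final) and left 60 min. Emission at 520 and 490 nm after 340 nm excitation, reported as the 520/490 ratio.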

PI3Kα (p110α/p85α) = PI3Kα (p110α/p85α) (Homo sapiens (Human), UniProt P42336); assay: PI3Kα enzymatic test by measuring the consumption of ATP; format: biochemical
PI3Kα (p110α/p85α), sequence (P42336 whole entry): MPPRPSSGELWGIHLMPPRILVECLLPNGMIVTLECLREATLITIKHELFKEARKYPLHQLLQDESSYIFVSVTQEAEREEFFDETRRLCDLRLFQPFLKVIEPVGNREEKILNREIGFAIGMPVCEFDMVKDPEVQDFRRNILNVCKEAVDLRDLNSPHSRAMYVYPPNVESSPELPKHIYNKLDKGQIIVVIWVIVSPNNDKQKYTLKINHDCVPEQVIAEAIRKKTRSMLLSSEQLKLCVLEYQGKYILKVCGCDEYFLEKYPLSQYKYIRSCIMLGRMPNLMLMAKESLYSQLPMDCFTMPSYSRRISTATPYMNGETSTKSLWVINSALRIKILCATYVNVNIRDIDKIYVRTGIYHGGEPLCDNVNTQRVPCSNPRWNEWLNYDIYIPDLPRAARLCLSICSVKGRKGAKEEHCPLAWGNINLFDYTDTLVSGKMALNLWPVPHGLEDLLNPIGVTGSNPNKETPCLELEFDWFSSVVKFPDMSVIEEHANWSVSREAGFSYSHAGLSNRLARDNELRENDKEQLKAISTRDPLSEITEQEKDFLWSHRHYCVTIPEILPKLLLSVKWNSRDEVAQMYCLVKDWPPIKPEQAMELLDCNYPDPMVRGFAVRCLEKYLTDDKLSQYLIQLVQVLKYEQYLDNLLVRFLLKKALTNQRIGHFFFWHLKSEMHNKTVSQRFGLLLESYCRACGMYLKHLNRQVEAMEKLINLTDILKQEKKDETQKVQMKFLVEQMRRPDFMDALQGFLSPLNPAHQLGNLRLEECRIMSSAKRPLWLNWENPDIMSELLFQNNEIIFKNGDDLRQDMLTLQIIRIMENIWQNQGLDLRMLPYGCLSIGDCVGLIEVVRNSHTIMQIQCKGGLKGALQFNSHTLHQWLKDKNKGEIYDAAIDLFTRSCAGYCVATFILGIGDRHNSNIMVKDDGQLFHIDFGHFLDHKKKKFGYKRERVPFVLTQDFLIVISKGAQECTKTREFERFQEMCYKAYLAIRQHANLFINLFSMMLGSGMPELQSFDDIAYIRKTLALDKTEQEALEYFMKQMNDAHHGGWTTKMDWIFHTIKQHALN
PI3Kα (p110α/p85α), sequence (P27986 whole entry partner): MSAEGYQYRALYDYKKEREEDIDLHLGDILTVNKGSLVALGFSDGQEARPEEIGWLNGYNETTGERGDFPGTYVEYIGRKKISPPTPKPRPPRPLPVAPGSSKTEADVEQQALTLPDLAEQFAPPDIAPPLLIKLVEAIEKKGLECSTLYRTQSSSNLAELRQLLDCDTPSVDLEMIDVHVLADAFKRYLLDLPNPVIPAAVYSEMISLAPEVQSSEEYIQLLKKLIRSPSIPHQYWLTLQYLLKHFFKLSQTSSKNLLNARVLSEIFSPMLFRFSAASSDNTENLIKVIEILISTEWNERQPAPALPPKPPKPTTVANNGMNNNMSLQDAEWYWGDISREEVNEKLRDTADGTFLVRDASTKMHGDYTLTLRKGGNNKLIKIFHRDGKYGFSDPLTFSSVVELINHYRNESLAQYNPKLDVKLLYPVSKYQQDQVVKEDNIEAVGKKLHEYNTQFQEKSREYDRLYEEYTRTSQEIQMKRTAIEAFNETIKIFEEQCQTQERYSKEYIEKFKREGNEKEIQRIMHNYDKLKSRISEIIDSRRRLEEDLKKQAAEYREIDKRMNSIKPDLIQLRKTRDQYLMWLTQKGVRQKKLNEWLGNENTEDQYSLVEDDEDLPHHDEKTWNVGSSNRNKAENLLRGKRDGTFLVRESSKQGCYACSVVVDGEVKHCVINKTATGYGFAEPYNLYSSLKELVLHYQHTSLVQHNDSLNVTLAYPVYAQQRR
Procedure, shortened: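 p110α/p85α (1.7 μg/ml) with 50 μM PIP2 and 2 μM ATP in pH 7.5 Tris buffer with EGTA, MgCl2, Chaps, DTT; reaction 90 min. Remaining ATP measured by luciferin/luciferase luminescence; IC50 from threefold serial dilutions spanning at least 10 000-fold.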

U87MG tumour cells = assay: Test of in vitro proliferation of U87MG tumour cells; format: cell-based; conditions: Homo sapiens, U-87 MG, 72 h, U87MG cells, 72 hours; read-out: U87 Cell Proliferation IC50
Experimental: Model 4: Test of in vitro Proliferation of U87MG Tumour Cells.
The cell growth is determined with the reagent CellTiter 96 AQueous One Solution Cell Proliferation Assay from Promega (Cat. No. G3581).

Akt-pS473 in U87MG cells = conditions: Homo sapiens, U-87 MG, read-out: U87 Akt-pS473 % Inhibition or IC50, nM (IC50), U87MG cells

mTOR (human recombinant aa mTOR 1360-2549), sequence (P42345 1360-2549): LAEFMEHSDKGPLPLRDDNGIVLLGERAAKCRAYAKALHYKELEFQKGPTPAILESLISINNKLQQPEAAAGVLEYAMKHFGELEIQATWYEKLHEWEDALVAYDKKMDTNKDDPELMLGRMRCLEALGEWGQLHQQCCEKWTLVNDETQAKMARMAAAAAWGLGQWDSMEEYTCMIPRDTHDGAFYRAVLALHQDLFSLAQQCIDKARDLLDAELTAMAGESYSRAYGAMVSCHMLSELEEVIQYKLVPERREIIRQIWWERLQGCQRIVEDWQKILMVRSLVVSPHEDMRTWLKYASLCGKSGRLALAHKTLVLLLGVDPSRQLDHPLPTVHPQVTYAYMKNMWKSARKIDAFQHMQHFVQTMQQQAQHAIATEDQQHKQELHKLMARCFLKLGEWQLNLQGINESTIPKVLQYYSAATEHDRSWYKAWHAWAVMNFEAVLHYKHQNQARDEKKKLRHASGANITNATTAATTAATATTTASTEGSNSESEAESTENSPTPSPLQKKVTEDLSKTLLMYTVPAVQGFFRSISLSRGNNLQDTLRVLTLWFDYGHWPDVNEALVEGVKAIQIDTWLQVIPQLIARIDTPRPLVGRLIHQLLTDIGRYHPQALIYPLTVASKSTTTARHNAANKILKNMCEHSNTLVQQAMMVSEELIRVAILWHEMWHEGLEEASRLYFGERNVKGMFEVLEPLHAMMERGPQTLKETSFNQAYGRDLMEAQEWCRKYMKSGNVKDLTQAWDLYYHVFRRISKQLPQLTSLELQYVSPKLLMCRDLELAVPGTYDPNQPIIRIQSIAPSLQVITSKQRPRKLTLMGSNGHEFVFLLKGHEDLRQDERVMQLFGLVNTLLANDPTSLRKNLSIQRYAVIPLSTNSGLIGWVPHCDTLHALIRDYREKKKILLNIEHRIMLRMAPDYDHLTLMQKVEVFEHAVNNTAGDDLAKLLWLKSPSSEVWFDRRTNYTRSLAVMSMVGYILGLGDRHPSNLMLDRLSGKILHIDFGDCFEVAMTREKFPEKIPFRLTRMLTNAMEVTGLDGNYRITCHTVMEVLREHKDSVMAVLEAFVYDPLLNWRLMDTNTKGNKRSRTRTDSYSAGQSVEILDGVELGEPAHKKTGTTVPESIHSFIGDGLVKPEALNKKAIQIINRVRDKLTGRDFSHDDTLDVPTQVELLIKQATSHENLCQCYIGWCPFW

Compound | IC50 [1] [nM] | PI3Ka IC50 (PI3Kα (p110α/p85α)) [nM] | IC50 (U87MG tumour cells) [nM] | IC50 (Akt-pS473 in U87MG cells) [nM]
CCN1CC(C)(C)Oc2nc(N3CC4CCC(C3)O4)nc(-c3ccc(NC(=O)Nc4ccc(C)cn4)cc3)c2C1=O [Example 34, 1-{4-[6-Ethyl-8,8-dimethyl-2-(8-oxa-3-azabicyclo[3.2.1]oct-3-yl)-5-oxo-5,6,7,8-tetrahydro-9-oxa-1,3,6-triazabenzocyclohepten-4-yl]phenyl}-3-(5-methylpyridin-2-yl)urea] | 43 | >10000 | 320 | 70
CCN1CC(C)(C)Oc2nc(N3CCOC[C@@H]3C)nc(-c3ccc(NC(=O)Nc4cc(OC)ccn4)cc3)c2C1=O [Example 184, 1-{4-[6-Ethyl-8,8-dimethyl-2-((S)-3-methylmorpholin-4-yl)-5-oxo-5,6,7,8-tetrahydro-9-oxa-1,3,6-triazabenzocyclohepten-4-yl]phenyl}-3-(4-methoxypyridin-2-yl)urea] | 12 | 12978 | 368 | 65
CCN1CC(C)(C)Oc2nc(N3CC4CCC(C3)O4)nc(-c3ccc(NC(=O)Nc4ccc(C(=O)N5CCC(N(C)C)CC5)cc4)cc3)c2C1=O [Example 177, 1-[4-(4-Dimethylaminopiperidine-1-carbonyl)phenyl]-3-{4-[6-ethyl-8,8-dimethyl-2-(8-oxa-3-azabicyclo[3.2.1]oct-3-yl)-5-oxo-5,6,7,8-tetrahydro-9-oxa-1,3,6-triazabenzocyclohepten-4-yl]phenyl}urea] | 84 | 87 | 57 | 435
CCN1CC(C)(C)Oc2nc(N3CC4CCC(C3)O4)nc(-c3ccc(NC(=O)Nc4cccc(C(F)(F)F)c4)cc3)c2C1=O [Example 147, 1-{4-[6-Ethyl-8,8-dimethyl-2-(8-oxa-3-azabicyclo[3.2.1]oct-3-yl)-5-oxo-5,6,7,8-tetrahydro-9-oxa-1,3,6-triazabenzocyclohepten-4-yl]phenyl}-3-(3-trifluoromethylphenyl)urea] | 182 | >10000 | 297 | 28
CCN1CC(C)(C)Oc2nc(N3CC4CCC(C3)O4)nc(-c3ccc(Nc4nnc(C)s4)cc3)c2C1=O [Example 121, 6-Ethyl-8,8-dimethyl-4-[4-(5-methyl-[1,3,4]thiadiazol-2-ylamino)phenyl]-2-(8-oxa-3-azabicyclo[3.2.1]oct-3-yl)-7,8-dihydro-6H-9-oxa-1,3,6-triazabenzocyclohepten-5-one] | 66 | >10000 | 802 | 130
CCN1CC(C)(C)Oc2nc(N3CC4CCC(C3)O4)nc(-c3ccc(NC(=O)O[C@H](C)CO)c(F)c3)c2C1=O [Example 62, {4-[6-Ethyl-8,8-dimethyl-2-(8-oxa-3-azabicyclo[3.2.1]oct-3-yl)-5-oxo-5,6,7,8-tetrahydro-9-oxa-1,3,6-triazabenzocyclohepten-4-yl]-2-fluorophenyl}carbamic acid (R)-2-hydroxy-1-methylethyl ester] | 667 | >10000 | > 10000 | > 1000
CCN1CC(C)(C)Oc2nc(N3CC4CCC(C3)O4)nc(-c3ccc(NC(=O)Nc4ccc(N5CCC(O)C5)cn4)cc3)c2C1=O (centres unmarked) [Example 72, 1-{4-[6-Ethyl-8,8-dimethyl-2-(8-oxa-3-azabicyclo[3.2.1]oct-3-yl)-5-oxo-5,6,7,8-tetrahydro-9-oxa-1,3,6-triazabenzocyclohepten-4-yl]phenyl}-3-[5-(3-hydroxypyrrolidin-1-yl)pyridin-2-yl]urea] | 23 | >10000 | 498 | 58
CC1(C)CN(C2CCOCC2)C(=O)c2c(nc(N3CC4CCC(C3)O4)nc2-c2ccc(NC(=O)Nc3ccon3)c(F)c2)O1 [Example 153, 1-{4-[8,8-Dimethyl-2-(8-oxa-3-azabicyclo[3.2.1]oct-3-yl)-5-oxo-6-(tetrahydropyran-4-yl)-5,6,7,8-tetrahydro-9-oxa-1,3,6-triazabenzocyclohepten-4-yl]-2-fluorophenyl}-3-isoxazol-3-ylurea] | 31 | >10000 | 346 | 116
CCN1CC(C)(C)Oc2nc(N3CCOC[C@@H]3C)nc(-c3ccc(NC(=O)Nc4ccc(C(=O)N5CCC(N(C)C)CC5)cc4)cc3)c2C1=O [Example 23, 1-[4-(4-dimethylaminopiperidine-1-carbonyl)phenyl]-3-{4-[6-ethyl-8,8-dimethyl-2-((S)-3-methylmorpholin-4-yl)-5-oxo-5,6,7,8-tetrahydro-9-oxa-1,3,6-triazabenzocyclohepten-4-yl]phenyl}urea] | 51 | 79 | 30 | 62
CCN1CC(C)(C)Oc2nc(N3C4CCC3COC4)nc(-c3ccc(NC(=O)Nc4ccnc(C)c4)c(F)c3)c2C1=O [Example 55, 1-{4-[6-Ethyl-8,8-dimethyl-2-(3-oxa-8-azabicyclo[3.2.1]oct-8-yl)-5-oxo-5,6,7,8-tetrahydro-9-oxa-1,3,6-triazabenzocyclohepten-4-yl]-2-fluorophenyl}-3-(2-methylpyridin-4-yl)urea] | 66 | 4810 | 54 | 27
CCN1CC(C)(C)Oc2nc(N3CC4CCC(C3)O4)nc(-c3ccc(NC(=O)Nc4ccc(OC5CCN(C)CC5)nc4)c(F)c3)c2C1=O [Example 22, 1-{4-[6-ethyl-8,8-dimethyl-2-(8-oxa-3-azabicyclo[3.2.1]oct-3-yl)-5-oxo-5,6,7,8-tetrahydro-9-oxa-1,3,6-triazabenzocyclohepten-4-yl]-2-fluorophenyl}-3-[6-(1-methylpiperidin-4-yloxy)pyridin-3-yl]urea] | 76 | 3070 | 68 | 28
CCN1CC(C)(C)Oc2nc(N3C4CCC3COC4)nc(-c3ccc(NC(=O)OCCO)cc3F)c2C1=O [Example 243, {4-[6-Ethyl-8,8-dimethyl-2-(3-oxa-8-azabicyclo[3.2.1]oct-8-yl)-5-oxo-5,6,7,8-tetrahydro-9-oxa-1,3,6-triazabenzocyclohepten-4-yl]-3-fluorophenyl}carbamic acid 2-hydroxyethyl ester] | 63 | 3870 | 610 | 160
CCN1CC(C)(C)Oc2nc(N3CC4CCC(C3)O4)nc(-c3ccc(NC(=O)Nc4cnc(N5CCOCC5)cn4)c(F)c3)c2C1=O [Example 233, 1-{4-[6-Ethyl-8,8-dimethyl-2-(8-oxa-3-azabicyclo[3.2.1]oct-3-yl)-5-oxo-5,6,7,8-tetrahydro-9-oxa-1,3,6-triazabenzocyclohepten-4-yl]-2-fluorophenyl}-3-(5-morpholin-4-ylpyrazin-2-yl)urea] | 68 | >10000 | 908 | 87
CCN1CC(C)(C)Oc2nc(N3CCOC[C@@H]3C)nc(-c3ccc(NC(=O)Nc4ccc(N5CCOCC5)cc4)c(F)c3)c2C1=O [Example 227, 1-{4-[6-Ethyl-8,8-dimethyl-2-((S)-3-methylmorpholin-4-yl)-5-oxo-5,6,7,8-tetrahydro-9-oxa-1,3,6-triazabenzocyclohepten-4-yl]-2-fluorophenyl}-3-(4-morpholin-4-ylphenyl)urea] | 76 | 484 | 29 | 7
C[C@@H]1COCCN1c1ccc(NC(=O)Nc2ccc(-c3nc(N4CC5CCC(C4)O5)nc4c3C(=O)N(C)CC(C)(C)O4)cc2F)cn1 [Example 87, 1-{2-Fluoro-4-[6,8,8-trimethyl-2-(8-oxa-3-azabicyclo[3.2.1]oct-3-yl)-5-oxo-5,6,7,8-tetrahydro-9-oxa-1,3,6-triazabenzocyclohepten-4-yl]phenyl}-3-[6-((R)-3-methylmorpholin-4-yl)pyridin-3-yl]urea] | 57 | >10000 | 59 | 20
CCN1CC(C)(C)Oc2nc(N3C4CCC3COC4)nc(-c3ccc(NC(=O)Nc4ccncc4)c(F)c3)c2C1=O [Example 51, 1-{4-[6-Ethyl-8,8-dimethyl-2-(3-oxa-8-azabicyclo[3.2.1]oct-8-yl)-5-oxo-5,6,7,8-tetrahydro-9-oxa-1,3,6-triazabenzocyclohepten-4-yl]-2-fluorophenyl}-3-pyridin-4-ylurea] | 20 | 1900 | 12 | 14
CCN1CC(C)(C)Oc2nc(N3C4CCC3COC4)nc(-c3ccc(NC(=O)NC4CC4)c(F)c3)c2C1=O [Example 254, 1-Cyclopropyl-3-{4-[6-ethyl-8,8-dimethyl-2-(3-oxa-8-azabicyclo[3.2.1]oct-8-yl)-5-oxo-5,6,7,8-tetrahydro-9-oxa-1,3,6-triazabenzocyclohepten-4-yl]-2-fluorophenyl}urea] | 68 | >10000 | 240 | 68
